According to PubChem BioAssay (NCI):
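Cultured in 96-well plates, cells were exposed to test compound for 48 hours across five concentrations. TGI denotes the concentration required for complete inhibition of growth.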

Test system: HOP-62 NSCLC
Test: inhibition of tumour cell growth, NCI panel, 48 h

Molecule `CCOC(=O)C1(Cc2ccc3c(c2)CCC3)Cc2cc3c(cc2C1=O)CCC3` (centres undefined) has a TGI greater than 100 µM.

Test system: HOP-92 NSCLC
Test: inhibition of tumour cell growth, NCI panel, 48 h

`CC1=C(C(=O)OCc2ccncc2)C(C2=C(C)SCCS2)C(C(=O)OCc2ccncc2)=C(C)N1` showed a TGI of 31.5 µM.

Test system: HS 578T breast
Test: inhibition of tumour cell growth, NCI panel, 48 h

Compared with `c1ccc(NNC2=NCCN2)cc1`, `O=C1c2scc(-c3ccccc3)c2-n2cccc21` is lower in TGI: greater than 100 µM for the first, 24 µM for the second.

`O=c1[nH][nH]c(=O)n1Cc1cccc(Cn2c(=O)[nH][nH]c2=O)c1` and `CCOC(=O)C1(Cc2ccc3c(c2)CCC3)Cc2cc3c(cc2C1=O)CCC3` (centres undefined) cannot be ordered by TGI: greater than 100 µM for the first, greater than 100 µM for the second.

For `CC1=C(C(=O)OCc2ccncc2)C(C2=C(C)SCCS2)C(C(=O)OCc2ccncc2)=C(C)N1`, the TGI was 58.3 µM.

Test system: HT29 colon
Test: inhibition of tumour cell growth, NCI panel, 48 h

Compared with `c1ccc(NNC2=NCCN2)cc1`, `O=C1c2scc(-c3ccccc3)c2-n2cccc21` is lower in TGI: greater than 100 µM for the first, 25.3 µM for the second.

`O=c1[nH][nH]c(=O)n1Cc1cccc(Cn2c(=O)[nH][nH]c2=O)c1` and `CCOC(=O)C1(Cc2ccc3c(c2)CCC3)Cc2cc3c(cc2C1=O)CCC3` (centres undefined) cannot be ordered by TGI: greater than 100 µM for the first, greater than 100 µM for the second.

`CC1=C(C(=O)OCc2ccncc2)C(C2=C(C)SCCS2)C(C(=O)OCc2ccncc2)=C(C)N1` was tested, and the TGI was 40 µM.

Test system: IGROV1 ovarian
Test: inhibition of tumour cell growth, NCI panel, 48 h

First: c1ccc(NNC2=NCCN2)cc1
Second: O=C1c2scc(-c3ccccc3)c2-n2cccc21
The TGI of the first is higher: greater than 100 µM for the first, 17.7 µM for the second.

`CC1=C(C(=O)OCc2ccncc2)C(C2=C(C)SCCS2)C(C(=O)OCc2ccncc2)=C(C)N1` and `CCOC(=O)C1(Cc2ccc3c(c2)CCC3)Cc2cc3c(cc2C1=O)CCC3` (centres undefined) cannot be ordered by TGI: greater than 100 µM for the first, greater than 100 µM for the second.

Test system: K-562 leukemia
Test: inhibition of tumour cell growth, NCI panel, 48 h

First: c1ccc(NNC2=NCCN2)cc1
Second: CC1=C(C(=O)OCc2ccncc2)C(C2=C(C)SCCS2)C(C(=O)OCc2ccncc2)=C(C)N1
The TGI of the first is higher: greater than 100 µM for the first, 59.2 µM for the second.

`O=c1[nH][nH]c(=O)n1Cc1cccc(Cn2c(=O)[nH][nH]c2=O)c1` and `CCOC(=O)C1(Cc2ccc3c(c2)CCC3)Cc2cc3c(cc2C1=O)CCC3` (centres undefined) cannot be ordered by TGI: greater than 100 µM for the first, greater than 100 µM for the second.

Test system: KM12 colon
Test: inhibition of tumour cell growth, NCI panel, 48 h

Going from `c1ccc(NNC2=NCCN2)cc1` to `O=C1c2scc(-c3ccccc3)c2-n2cccc21`, the TGI falls from greater than 100 µM to 27.3 µM.

`O=c1[nH][nH]c(=O)n1Cc1cccc(Cn2c(=O)[nH][nH]c2=O)c1` and `CCOC(=O)C1(Cc2ccc3c(c2)CCC3)Cc2cc3c(cc2C1=O)CCC3` (centres undefined) cannot be ordered by TGI: greater than 100 µM for the first, greater than 100 µM for the second.

`CC1=C(C(=O)OCc2ccncc2)C(C2=C(C)SCCS2)C(C(=O)OCc2ccncc2)=C(C)N1` showed a TGI of 47.5 µM.

Test system: LOX IMVI melanoma
Test: inhibition of tumour cell growth, NCI panel, 48 h

Going from `c1ccc(NNC2=NCCN2)cc1` to `O=C1c2scc(-c3ccccc3)c2-n2cccc21`, the TGI falls from greater than 100 µM to 27.9 µM.

`O=c1[nH][nH]c(=O)n1Cc1cccc(Cn2c(=O)[nH][nH]c2=O)c1` and `CCOC(=O)C1(Cc2ccc3c(c2)CCC3)Cc2cc3c(cc2C1=O)CCC3` (centres undefined) cannot be ordered by TGI: greater than 100 µM for the first, greater than 100 µM for the second.

`CC1=C(C(=O)OCc2ccncc2)C(C2=C(C)SCCS2)C(C(=O)OCc2ccncc2)=C(C)N1` showed a TGI of 35.8 µM.

Test system: M14 melanoma
Test: inhibition of tumour cell growth, NCI panel, 48 h

Compared with `c1ccc(NNC2=NCCN2)cc1`, `O=C1c2scc(-c3ccccc3)c2-n2cccc21` is lower in TGI: greater than 100 µM for the first, 33.3 µM for the second.

`O=c1[nH][nH]c(=O)n1Cc1cccc(Cn2c(=O)[nH][nH]c2=O)c1` and `CCOC(=O)C1(Cc2ccc3c(c2)CCC3)Cc2cc3c(cc2C1=O)CCC3` (centres undefined) cannot be ordered by TGI: greater than 100 µM for the first, greater than 100 µM for the second.

`CC1=C(C(=O)OCc2ccncc2)C(C2=C(C)SCCS2)C(C(=O)OCc2ccncc2)=C(C)N1` gave a TGI of 71 µM.

Test system: MALME-3M melanoma
Test: inhibition of tumour cell growth, NCI panel, 48 h

First: O=c1[nH][nH]c(=O)n1Cc1cccc(Cn2c(=O)[nH][nH]c2=O)c1
Second: O=C1c2scc(-c3ccccc3)c2-n2cccc21
The TGI of the first is higher: greater than 100 µM for the first, 30.7 µM for the second.

In the case of `CCOC(=O)C1(Cc2ccc3c(c2)CCC3)Cc2cc3c(cc2C1=O)CCC3` (centres undefined), the TGI is reported as greater than 100 µM.

Test system: MCF7 breast
Test: inhibition of tumour cell growth, NCI panel, 48 h

Compared with `c1ccc(NNC2=NCCN2)cc1`, `O=C1c2scc(-c3ccccc3)c2-n2cccc21` is lower in TGI: greater than 100 µM for the first, 52.9 µM for the second.

`O=c1[nH][nH]c(=O)n1Cc1cccc(Cn2c(=O)[nH][nH]c2=O)c1` and `CCOC(=O)C1(Cc2ccc3c(c2)CCC3)Cc2cc3c(cc2C1=O)CCC3` (centres undefined) cannot be ordered by TGI: greater than 100 µM for the first, greater than 100 µM for the second.

With `CC1=C(C(=O)OCc2ccncc2)C(C2=C(C)SCCS2)C(C(=O)OCc2ccncc2)=C(C)N1` the TGI was 52 µM.

Test system: MDA-MB-231 breast
Test: inhibition of tumour cell growth, NCI panel, 48 h

First: c1ccc(NNC2=NCCN2)cc1
Second: O=C1c2scc(-c3ccccc3)c2-n2cccc21
The TGI of the first is higher: greater than 100 µM for the first, 31.4 µM for the second.

`O=c1[nH][nH]c(=O)n1Cc1cccc(Cn2c(=O)[nH][nH]c2=O)c1` and `CCOC(=O)C1(Cc2ccc3c(c2)CCC3)Cc2cc3c(cc2C1=O)CCC3` (centres undefined) cannot be ordered by TGI: greater than 100 µM for the first, greater than 100 µM for the second.

For `CC1=C(C(=O)OCc2ccncc2)C(C2=C(C)SCCS2)C(C(=O)OCc2ccncc2)=C(C)N1`, the TGI was 91.9 µM.

Test system: MDA-MB-435
Test: inhibition of tumour cell growth, NCI panel, 48 h

Going from `c1ccc(NNC2=NCCN2)cc1` to `O=C1c2scc(-c3ccccc3)c2-n2cccc21`, the TGI falls from greater than 100 µM to 29 µM.

`O=c1[nH][nH]c(=O)n1Cc1cccc(Cn2c(=O)[nH][nH]c2=O)c1` and `CCOC(=O)C1(Cc2ccc3c(c2)CCC3)Cc2cc3c(cc2C1=O)CCC3` (centres undefined) cannot be ordered by TGI: greater than 100 µM for the first, greater than 100 µM for the second.

Molecule `CC1=C(C(=O)OCc2ccncc2)C(C2=C(C)SCCS2)C(C(=O)OCc2ccncc2)=C(C)N1` has a TGI of 38.9 µM.

Test system: MDA-N
Test: inhibition of tumour cell growth, NCI panel, 48 h

First: c1ccc(NNC2=NCCN2)cc1
Second: O=C1c2scc(-c3ccccc3)c2-n2cccc21
The TGI of the first is higher: greater than 100 µM for the first, 50 µM for the second.

`O=c1[nH][nH]c(=O)n1Cc1cccc(Cn2c(=O)[nH][nH]c2=O)c1` and `CCOC(=O)C1(Cc2ccc3c(c2)CCC3)Cc2cc3c(cc2C1=O)CCC3` (centres undefined) cannot be ordered by TGI: greater than 100 µM for the first, greater than 100 µM for the second.

In the case of `CC1=C(C(=O)OCc2ccncc2)C(C2=C(C)SCCS2)C(C(=O)OCc2ccncc2)=C(C)N1`, the TGI is reported as 72.8 µM.

Test system: MOLT-4 leukemia
Test: inhibition of tumour cell growth, NCI panel, 48 h

Compared with `c1ccc(NNC2=NCCN2)cc1`, `O=C1c2scc(-c3ccccc3)c2-n2cccc21` is lower in TGI: greater than 100 µM for the first, 37.9 µM for the second.

`O=c1[nH][nH]c(=O)n1Cc1cccc(Cn2c(=O)[nH][nH]c2=O)c1` and `CCOC(=O)C1(Cc2ccc3c(c2)CCC3)Cc2cc3c(cc2C1=O)CCC3` (centres undefined) cannot be ordered by TGI: greater than 100 µM for the first, greater than 100 µM for the second.

Work on `CC1=C(C(=O)OCc2ccncc2)C(C2=C(C)SCCS2)C(C(=O)OCc2ccncc2)=C(C)N1` yielded a TGI of 49.2 µM.

Test system: NCI-H226 lung
Test: inhibition of tumour cell growth, NCI panel, 48 h

Going from `c1ccc(NNC2=NCCN2)cc1` to `O=C1c2scc(-c3ccccc3)c2-n2cccc21`, the TGI falls from greater than 100 µM to 25 µM.

`O=c1[nH][nH]c(=O)n1Cc1cccc(Cn2c(=O)[nH][nH]c2=O)c1` and `CCOC(=O)C1(Cc2ccc3c(c2)CCC3)Cc2cc3c(cc2C1=O)CCC3` (centres undefined) cannot be ordered by TGI: greater than 100 µM for the first, greater than 100 µM for the second.

`CC1=C(C(=O)OCc2ccncc2)C(C2=C(C)SCCS2)C(C(=O)OCc2ccncc2)=C(C)N1` gave a TGI of 42.7 µM.

Test system: NCI-H23 lung
Test: inhibition of tumour cell growth, NCI panel, 48 h

In the case of `c1ccc(NNC2=NCCN2)cc1`, the TGI is reported as greater than 100 µM.
